# Laboratory results taken from patent publication US20240109873A1, “ANTAGONISTS OF THE MUSCARINIC ACETYLCHOLINE RECEPTOR M4” (Vanderbilt University, priority 2020, published 2024).
# pIC50: −log10 of the molar value.
# Target: T1, human mAChR M4 (Homo sapiens, UniProt P08173)
# T1 construct: expressed in transfected cells; host or cells: CHO-K1 (ATCC), co-transfected with chimeric G protein Gqi5
# T1 sequence (P08173 1-479): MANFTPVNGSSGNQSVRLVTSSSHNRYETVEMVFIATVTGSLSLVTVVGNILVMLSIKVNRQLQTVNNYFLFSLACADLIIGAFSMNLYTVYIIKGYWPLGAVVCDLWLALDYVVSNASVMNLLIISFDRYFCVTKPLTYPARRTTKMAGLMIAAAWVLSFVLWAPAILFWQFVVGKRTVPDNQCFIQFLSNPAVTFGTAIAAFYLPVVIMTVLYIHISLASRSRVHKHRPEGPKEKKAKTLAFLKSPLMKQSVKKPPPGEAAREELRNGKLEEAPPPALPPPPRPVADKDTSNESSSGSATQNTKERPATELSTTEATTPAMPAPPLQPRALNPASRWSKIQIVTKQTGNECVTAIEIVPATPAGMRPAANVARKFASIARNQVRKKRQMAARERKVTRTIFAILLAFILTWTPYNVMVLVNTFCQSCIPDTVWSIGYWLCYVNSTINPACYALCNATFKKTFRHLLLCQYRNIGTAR
# Test: mAChR M4 cell-based functional assay (calcium flux, antagonism of EC80 acetylcholine response, M4/Gqi5/CHO-K1 cells)
# Settings: for remaining activity at 30 µM: CHO-K1, % ACh maximum at 30 μM, read-out: Human M4 Emin; for pIC50: decrease of the response elicited by an EC80 concentration of acetylcholine, CHO-K1 cells, Gqi5; for Human M4 Emin: % ACh maximum at 30 μM
# Description: Human or rat M4 cDNA, along with the chimeric G protein Gqi5, were transfected into Chinese hamster ovary (CHO-K1) cells purchased from the American Type Culture Collection using Lipofectamine2000. M4/Gqi5/CHO cells were grown in Ham's F-12 medium containing 10% heat-inactivated fetal bovine serum (FBS), 20 mM HEPES, 500 μg/mL G418 sulfate, and 200 μg/mL Hygromycin B.
# For high throughput measurement of agonist-evoked increases in intracellular calcium, CHO-K1 cells stably expressing muscarinic receptors were plated in growth medium lacking G418 and hygromycin at 15,000 cells/20 μL/well in Greiner 384-well black-walled, tissue culture (TC)-treated, clear-bottom plates (VWR). Cells were incubated overnight at 37° C. and 5% CO2. The next day, cells were washed using an ELX 405 (BioTek) with assay buffer; the final volume was then aspirated to 20 μL. Next, 20 μL of a 2.3 μM stock of Fluo-4/acetoxymethyl ester (Invitrogen, Carlsbad, CA), prepared as a 2.3 mM stock in DMSO and mixed in a 1:1 ratio with 10% (w/v) Pluronic F-127 and diluted in assay buffer, was added to the wells and the cell plates were incubated for 50 min at 37° C. and 5% CO2. Dye was removed by washing with the ELX 405 and the final volume was aspirated to 20 μL. Compound master plates were formatted in a 10-point concentration-response curve (CRC) format (1:3 dilutions) in 100% DMSO with a starting concentration of 10 or 1 mM using a BRAVO liquid handler (Agilent). Test compound CRCs were then transferred to daughter plates (240 nL) using the Echo acoustic plate reformatter (Labcyte, Sunnyvale, CA) and then diluted into assay buffer (40 μL) to a 2× stock using a Thermo Fisher Combi (Thermo Fisher Scientific, Waltham, MA).
# Calcium flux was measured using the Functional Drug Screening System (FDSS) 6000 or 7000 (Hamamatsu Corporation, Tokyo, Japan) as an increase in the fluorescent static ratio. Compounds were applied to cells (20 μL, 2×) using the automated system of the FDSS at 2 seconds into the protocol and the data were collected at 1 Hz. At 143 s, 10 μL of an EC20 concentration of the muscarinic receptor agonist acetylcholine was added (5×), followed by the addition of 12 μL of an EC80 concentration of acetylcholine at the 268 s time point (5×). Agonist activity was analyzed as a concentration-dependent increase in calcium mobilization upon compound addition. Positive allosteric modulator activity was analyzed as a concentration-dependent increase in the EC20 acetylcholine response. Antagonist activity was analyzed as a concentration-dependent decrease in the EC80 acetylcholine response; for the purposes of the tables herein, an IC50 (inhibitory concentration 50) was calculated as a concentration-dependent decrease of the response elicited by an EC80 concentration of acetylcholine. Concentration-response curves were generated using a four-parameter logistical equation in XLFit curve fitting software (IDBS, Bridgewater, NJ) for Excel (Microsoft, Redmond, WA) or Prism (GraphPad Software, Inc., San Diego, CA) or the Dotmatics software platform (Dotmatics, Bishop's Stortford, UK). […]
# Compounds were synthesized as described above. Activity (IC50 and Emin) was determined in the mAChR M4 cell-based functional assay as described above and the data are shown in Table 2.
SMILES,remaining activity at 30 µM [%],pIC50,Human M4 Emin [%]
"[2H]C1([2H])CC(C([2H])([2H])N2C[C@H]3C[C@H](Nc4ccc(-c5cnccc5C(F)(F)F)nn4)C[C@@]3(C)C2)CC([2H])([2H])O1 (racemic) [Compound 27, (3aR,5S,6aS)-3a-methyl-2-((tetrahydro-2H-pyran-4-yl-2,2,6,6-d4)methyl-d2)-N-(6-(4-(trifluoromethyl)pyridin-3-yl)pyridazin-3-yl)octahydrocyclopenta[c]pyrrol-5-amine and (3aS,5R,6aR)-3a-methyl-2-((tetrahydro-2H-pyran-4-yl-2,2,6,6-d4)methyl-d2)-N-(6-(4-(trifluoromethyl)pyridin-3-yl)pyridazin-3-yl)octahydrocyclopenta[c]pyrrol-5-amine]",3,8.49,
"[2H]C([2H])(C1CCOCC1)N1C[C@@H]2C[C@@H](Nc3ccc(-c4cccnc4C(F)(F)F)nn3)C[C@]2(C)C1 (racemic) [Compound 56, (3aR,5S,6aS)-3a-methyl-2-((tetrahydro-2H-pyran-4-yl)methyl-d2)-N-(6-(2-(trifluoromethyl)pyridin-3-yl)pyridazin-3-yl)octahydrocyclopenta[c]pyrrol-5-amine and (3aS,5R,6aR)-3a-methyl-2-((tetrahydro-2H-pyran-4-yl)methyl-d2)-N-(6-(2-(trifluoromethyl)pyridin-3-yl)pyridazin-3-yl)octahydrocyclopenta[c]pyrrol-5-amine]",2,8.72,
"[2H]C1([2H])CC(C([2H])([2H])N2C[C@H]3C[C@H](Nc4ccc(-c5cccnc5C(F)(F)F)nn4)C[C@@]3(C)C2)CC([2H])([2H])O1 (racemic) [Compound 57, (3aR,5S,6aS)-3a-methyl-2-((tetrahydro-2H-pyran-4-yl-2,2,6,6-d4)methyl-d2)-N-(6-(2-(trifluoromethyl)pyridin-3-yl)pyridazin-3-yl)octahydrocyclopenta[c]pyrrol-5-amine and (3aS,5R,6aR)-3a-methyl-2-((tetrahydro-2H-pyran-4-yl-2,2,6,6-d4)methyl-d2)-N-(6-(2-(trifluoromethyl)pyridin-3-yl)pyridazin-3-yl)octahydrocyclopenta[c]pyrrol-5-amine]",3,8.82,
"[2H]C([2H])(C1CCOC(C)(C)C1)N1C[C@H]2C[C@H](Nc3ccc(-c4cnccc4C(F)(F)F)nn3)C[C@H]2C1 (single isomer, unassigned) [Compound 58]",,8.03,3
"[2H]C([2H])(C1CCOC(C)(C)C1)N1C[C@H]2C[C@H](Nc3ccc(-c4cnccc4C(F)(F)F)nn3)C[C@H]2C1 (single isomer, unassigned) [Compound 59]",,9.00,3
"FC(F)(F)c1ccncc1-c1ccc(N[C@H]2C[C@@H]3CN(CC4CCOCC4)C[C@@H]3C2)nn1 [Compound 1, (3aR,5s,6aS)-2-((tetrahydro-2H-pyran-4-yl)methyl)-N-(6-(4-(trifluoromethyl)pyridin-3-yl)pyridazin-3-yl)octahydrocyclopenta[c]pyrrol-5-amine]",4,9.55,

# Now from value to compound:
remaining activity at 30 µM [%],pIC50,Human M4 Emin [%],SMILES
4,7.36,,"[2H]C([2H])(N1C[C@H]2C[C@H](Nc3ccc(-c4cnccc4C(F)(F)F)nn3)C[C@H]2C1)[C@]12CCC[C@H]1OCC2 (racemic) [Compound 29, (3aR,5s,6aS)-2-(((3aR,6aR)-hexahydro-3aH-cyclopenta[b]furan-3a-yl)methyl-d2)-N-(6-(4-(trifluoromethyl)pyridin-3-yl)pyridazin-3-yl)octahydrocyclopenta[c]pyrrol-5-amine and (3aR,5s,6aS)-2-(((3aS,6aS)-hexahydro-3aH-cyclopenta[b]furan-3a-yl)methyl-d2)-N-(6-(4-(trifluoromethyl)pyridin-3-yl)pyridazin-3-yl)octahydrocyclopenta[c]pyrrol-5-amine]"
31,5.40,,"[2H]C([2H])(N1C[C@H]2C[C@H](Nc3ccc(-c4cnccc4C(F)(F)F)nn3)C[C@H]2C1)[C@@]12CCCCC[C@H]1OCC2 (racemic) [Compound 30, (3aR,5s,6aS)-2-(((3aS,8aR)-octabydro-3aH-cyclohepta[b]furan-3a-yl)methyl-d2)-N-(6-(4-(trifluoromethyl)pyridin-3-yl)pyridazin-3-yl)octahydrocyclopenta[c]pyrrol-5-amine and (3aR,5s,6aS)-2-(((3aR,8aS)-octahydro-3aH-cyclohepta[b]furan-3a-yl)methyl-d2)-N-(6-(4-(trifluoromethyl)pyridin-3-yl)pyridazin-3-yl)octahydrocyclopenta[c]pyrrol-5-amine]"
3,9.39,,"[2H]C([2H])(C1CCOCC1)N1C[C@H]2C[C@H](Nc3ccc(-c4cnccc4C(F)(F)F)nn3)C[C@H]2C1 [Compound 2, (3aR,5s,6aS)-2-((tetrahydro-2H-pyran-4-yl)methyl-d2)-N-(6-(4-(trifluoromethyl)pyridin-3-yl)pyridazin-3-yl)octahydrocyclopenta[c]pyrrol-5-amine]"
2,8.34,,"[2H]C([2H])(C1CCOCC1(C)C)N1C[C@H]2C[C@H](Nc3ccc(-c4cnccc4C(F)(F)F)nn3)C[C@H]2C1 (stereo partly drawn) [Compound 3, (3aR,5s,6aS)-2-((3,3-dimethyltetrahydro-2H-pyran-4-yl)methyl-d2)-N-(6-(4-(trifluoromethyl)pyridin-3-yl)pyridazin-3-yl)octahydrocyclopenta[c]pyrrol-5-amine]"
2,7.82,,"[2H]C([2H])(N1C[C@H]2C[C@H](Nc3ccc(-c4cnccc4C(F)(F)F)nn3)C[C@H]2C1)C1(C)CCOCC1 [Compound 4, (3aR,5s,6aS)-2-((4-methyltetrahydro-2H-pyran-4-yl)methyl-d2)-N-(6-(4-(trifluoromethyl)pyridin-3-yl)pyridazin-3-yl)octahydrocyclopenta[c]pyrrol-5-amine]"
2,9.04,,"[2H]C([2H])([C@H]1COCCO1)N1C[C@H]2C[C@H](Nc3ccc(-c4cnccc4C(F)(F)F)nn3)C[C@H]2C1 [Compound 5, (3aR,5s,6aS)-2-(((S)-1,4-dioxan-2-yl)methyl-d2)-N-(6-(4-(trifluoromethyl)pyridin-3-yl)pyridazin-3-yl)octahydrocyclopenta[c]pyrrol-5-amine]"
3,7.48,,"[2H]C([2H])([C@@H]1COCCO1)N1C[C@H]2C[C@H](Nc3ccc(-c4cnccc4C(F)(F)F)nn3)C[C@H]2C1 [Compound 6, (3aR,5s,6aS)-2-(((R)-1,4-dioxan-2-yl)methyl-d2)-N-(6-(4-(trifluoromethyl)pyridin-3-yl)pyridazin-3-yl)octahydrocyclopenta[c]pyrrol-5-amine]"
